Assay results as given in US5132463A, “1,3-diaryl cyclopentanes and derivatives thereof as PAF antagonists” (Merck & Co., Inc., priority 1991, dated 1992).
Where “and” joins values, the source holds several entries; their conditions need not be identical. Identical values can stand only once. Like-named read-outs stand apart in the source and are kept apart here.

Target: T1, PAF receptor (specific receptor binding site on rabbit platelet plasma membranes) (Oryctolagus cuniculus, UniProt G1TEI7)
T1 construct: 100 μg of the platelet plasma membrane suspension; from tissue; host or cells: rabbit platelet plasma membranes
T1 sequence (G1TEI7 1-342): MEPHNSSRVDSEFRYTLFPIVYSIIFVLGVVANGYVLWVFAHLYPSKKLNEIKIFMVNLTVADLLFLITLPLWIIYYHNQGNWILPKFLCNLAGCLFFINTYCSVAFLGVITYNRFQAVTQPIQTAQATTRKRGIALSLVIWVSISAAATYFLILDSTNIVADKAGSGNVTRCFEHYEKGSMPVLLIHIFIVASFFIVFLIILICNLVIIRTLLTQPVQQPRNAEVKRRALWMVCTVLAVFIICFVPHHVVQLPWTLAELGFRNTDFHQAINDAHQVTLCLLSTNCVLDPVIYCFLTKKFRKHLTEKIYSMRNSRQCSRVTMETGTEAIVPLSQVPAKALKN
Test: inhibition of 3H-PAF binding to rabbit platelet plasma membrane
Conditions: for IC50: 3H-PAF, pH 7.5, 0° C.
Experimental: They inhibit in vitro PAF-induced functions in both the cellular and tissue levels by changing the PAF binding to its specific receptor site. This ability to inhibit the PAF binding to its specific receptor binding site on rabbit platelet plasma membranes was measured by an assay recently developed by us.
The inhibition of H^3 -PAF binding to the rabbit platelet plasma membrane by a PAF antagonist of Formula (I) was determined by isotopic labeling and filtration techniques. Generally, a series of Tris-buffered solutions of the selected antagonist at predetermined concentrations were prepared. Each of these solutions contains 1 pmole of ^3 H-PAF, a known amount of the test antagonist, and a sufficient amount of the pH 7.5 Tris-buffer solution (10 mM Tris, 0.25% bovine serum albumin, and 150 mM NaCl per ml water) to make the final volume of 1 ml. After adding into a set of test tubes each with 100 μg of the platelet plasma membrane suspension (S. B. Hwang, et al., Biochemistry, Vol. 22, pp. 4756-4763, 1983) and one of the Tris-buffer solutions described above, the resulting mixture in each test tube was incubated at 0° C. for about one hour or until the reaction was complete. Two control samples, one of which (C1) contains all the ingredients described above except the antagonist and the other (C 2) contains C1 plus a 1000-fold excess of unlabeled PAF, were also prepared and incubated simultaneously with the test samples. After the incubation was completed, the contents of each test tube were filtered under vacuo through a Whatman GF/C fiberglass filter and the residue washed rapidly several times with a total of 20 ml cold (0°-5° C.) Tris-buffer solution. Each washed residue was then suspended in 10 ml scintillation solution (Aquasol 2, New England Nuclear, Conn.) and the radioactivity was counted in a Packard Tri-Carb 460CD Liquid Scintillation System. Defining the counts from a test sample as "Total binding with antagonist"; the counts from the control sample C1, as "Total binding C1 "; and the counts from the control sample C2 as "non-specific binding C2 ", the percent inhibition of each test antagonist can be determined by the following equation: [formula]

[1] = Table (A), at 300 nM, read-out: PAF Receptor Binding Inhibition, Percent Inhibition

| SMILES | IC50 (Table (A)) | also measured |
| --- | --- | --- |
| C=CCOC1[C@H](c2cc(OC)c(OC)c(OC)c2)CC[C@H]1c1cc(OC)c(OC)c(OC)c1 (relative stereo) | 4.8 nM | – |
| COc1cc([C@@H]2CC[C@@H](c3cc(OC)c(OC)c(OC)c3)C2)cc(OC)c1OC (relative stereo) [H, 1α,3β-bis(3,4,5-trimethoxyphenyl)cyclopentane] | 20 nM | – |
| COc1cc([C@@H]2CC[C@@H](c3cc(OC)c(OC)c(OC)c3)C2O)cc(OC)c1OC (relative stereo) [OH, trans-2,5-bis(3,4,5-trimethoxyphenyl)cyclopentanol] | – | inhibition at 0.5 µM (Table (A), at 500 nM, read-out: PAF Receptor Binding Inhibition, Percent Inhibition): 84% |
| CCCOC1[C@H](c2cc(OC)c(OC)c(OC)c2)CC[C@H]1c1cc(OC)c(OC)c(OC)c1 (relative stereo) | 30 nM | – |
| CCCOc1c(Br)cc([C@@H]2CC[C@@H](c3cc(OC)c(OC)c(OC)c3)[C@H]2OC)cc1OC (relative stereo) [OCH3, Br] | – | IC50 (Table (B)): 47 nM |
| CCCOc1c(OC)cc([C@@H]2CC[C@@H](c3cc(OC)c(OC)c(OC)c3)[C@@H]2OC)cc1[S+](C)[O-] (relative stereo) [OCH3, SOCH3] | – | IC50 (Table (B)): 18 nM and 9.3 nM |
| COc1cc([C@H]2CC[C@H](c3cc(OC)c(OC)c(OC)c3)C2=NO)cc(OC)c1OC (relative stereo) [NOH, trans-2,5-bis(3,4,5-trimethoxyphenyl)cyclopentanone oxime] | 5.8 nM | – |
| C#CCOC1[C@H](c2cc(OC)c(OC)c(OC)c2)CC[C@H]1c1cc(OC)c(OC)c(OC)c1 (relative stereo) | 1 nM | – |
| CCOC(=O)COC1[C@H](c2cc(OC)c(OC)c(OC)c2)CC[C@H]1c1cc(OC)c(OC)c(OC)c1 (relative stereo) | 3.6 nM | – |
| CCCOc1c(OC)cc([C@@H]2CC[C@@H](c3cc(OC)c(OC)c(OC)c3)[C@@H]2OC)cc1S(C)(=O)=O (relative stereo) [OCH3, SO2 CH3] | – | IC50 (Table (B)): 4.3 nM and 3.8 nM |
| CCCOc1c(OC)cc([C@H]2CC[C@H](c3cc(OC)c(OC)c(OC)c3)[C@@H]2OC)cc1C(N)=O (relative stereo) [OCH3, (CO)NH2] | – | IC50 (Table (B)): 124 nM and 47 nM |
| COc1cc([C@@H]2CC[C@@H](c3cc(OC)c(OC)c(OC)c3)C2OCc2ccccc2)cc(OC)c1OC (relative stereo) [OCH2 C6 H5] | 48 nM | – |
| COc1cc([C@@H]2CC[C@@H](c3cc(OC)c(OC)c(OC)c3)C2OCC(=O)N(C)C)cc(OC)c1OC (relative stereo) | – | inhibition at 0.3 µM [1]: 23% |
| CCOC1[C@H](c2cc(OC)c(OC)c(OC)c2)CC[C@H]1c1cc(OC)c(OC)c(OC)c1 (relative stereo) | 30 nM | – |
| COc1cc([C@@H]2CC[C@@H](c3cc(OC)c(OC)c(OC)c3)C2OC(C)=O)cc(OC)c1OC (relative stereo) [OCOCH3, 1α-acetoxy-2α,5β-bis(3,4,5-trimethoxypheny)cyclopentane] | 100 nM | – |
| CCCOc1c(OC)cc([C@@H]2CC[C@@H](c3cc(OC)c(OC)c(OC)c3)[C@@H]2O)cc1SC (relative stereo) [OH, SCH3] | – | PAF Receptor Binding Inhibition, Percent Inhibition (Table (B), at 300 nM, 0.3 µM): 38%; inhibition at 0.3 µM (Table (B), at 300 nM, read-out: PAF Receptor Binding Inhibition, Percent Inhibition): 23% |
| COc1cc([C@@H]2CC[C@@H](c3cc(OC)c(OC)c(OC)c3)C2OCC(=O)O)cc(OC)c1OC (relative stereo) | – | inhibition at 0.3 µM [1]: 16% |
| COc1cc([C@@H]2CC[C@@H](c3cc(OC)c(OC)c(OC)c3)C2OCCN(C)C)cc(OC)c1OC (relative stereo) | 100 nM | – |
| COc1cc([C@@H]2CC[C@@H](c3cc(OC)c(OC)c(OC)c3)C2OCC2CC2)cc(OC)c1OC (relative stereo) | 19 nM | – |
| COCCOC1[C@H](c2cc(OC)c(OC)c(OC)c2)CC[C@H]1c1cc(OC)c(OC)c(OC)c1 (relative stereo) | 100 nM | – |

The next lines start with results.

| IC50 (Table (A)) | SMILES | also measured |
| --- | --- | --- |
| 5 nM | CON=C1[C@@H](c2cc(OC)c(OC)c(OC)c2)CC[C@@H]1c1cc(OC)c(OC)c(OC)c1 (relative stereo) [NOCH3, Trans-2,5-bis(3,4,5-trimethoxyphenyl)cyclopentanone-O-methyloxime] | – |
| 8.3 nM | COc1cc([C@@H]2CC[C@@H](c3cc(OC)c(OC)c(OC)c3)C2OC)cc(OC)c1OC (relative stereo) [OCH3, 1α-Methoxy-2α,5β-bis-(3,4,5-trimethoxyphenyl)cyclopentane] | – |
